In patent publication US12178892B2, “Compounds for positron emission tomography” (Endocyte, Inc., priority 2013, dated 2024):

Tests used:
KB tumor xenografts [1] = assay: Ex vivo (postmortem) biodistribution, KB tumor xenografts; format: in vivo, nude mice; details: for FR specificity: in both KB xenograft tumor tissues and A549 xenograft tumor tissues; for radiotracer level in kidneys: mouse, in vivo
Excerpt: (§1) EXAMPLE. […] Without being bound by theory, it is believed herein that the highest accumulation of radioactivity in kidneys, along with the relative low uptake of radiotracer in the hepatobiliary system i.e. liver, bile and intestine/feces supports that renal elimination is the predominant excretion pathway.

A549 tumor xenografts = assay: Ex vivo (postmortem) biodistribution, A549 tumor xenografts; design: species or system nude mice; details: mouse
Excerpt: as §1, with “It is to be understood that the vertical axis has been expanded and that the kidney data is truncated. […] It is to be understood that the vertical axis has been expanded and that the kidney data is truncated. […] EXAMPLE.” for “EXAMPLE.”

FR [2] = assay: Binding in A549 xenograft homogenates; details: A549 xenografts
[3] = tested on: PSMA(+) prostate cancer tissues; assay: Binding to PSMA(+) prostate cancer tissues (tissue imaging); details: compared to ^67Ga-DKFZ-PSMA11
Protocol: (§2) EXAMPLE. In vitro evaluation of DUPA-EAOA-Phe-Phe-NOTA-^68Ga radiotracer (^68Ga-QC08009). ^67Ga has a longer half life than ^68Ga (about 3.3 days versus about 68 minutes, respectively). Thus, ^67Ga is used as a surrogate of ^68Ga for in vitro evaluation of Kd values and tissue imaging. It is to be understood that the in vitro evaluation of Kd values and tissue imaging observed for ^67Ga is predictive of ^68Ga. DUPA-EAOA-Phe-Phe-NOTA-^67Ga (67Ga-NOTA-LC-PSMA2) was prepared in nearly quantitative radiochemical yield. […] PC3 is a PSMA (−) cell line; LnCap is a PSMA (+) cell line; and PIP—PC3 is a transfect cell line with higher PSMA expression.

PSMA = target: T1, PSMA (Homo sapiens, UniProt Q04609); assay: In vitro study in PSMA(−) and PSMA(+) cell lines, Kd; format: cell-based; details: PSMA(−) cell line (PC3) and PSMA(+) cell lines (LnCaP and PIP—PC3); ^67Ga as surrogate of ^68Ga
T1 construct: LnCap is a PSMA (+) cell line; and PIP—PC3 is a transfect cell line with higher PSMA expression; endogenous in cells; host or cells: LnCaP (endogenous) and PIP-PC3 (PSMA-transfected PC3); PC3 as the PSMA(-) control
T1 sequence (Q04609 whole entry): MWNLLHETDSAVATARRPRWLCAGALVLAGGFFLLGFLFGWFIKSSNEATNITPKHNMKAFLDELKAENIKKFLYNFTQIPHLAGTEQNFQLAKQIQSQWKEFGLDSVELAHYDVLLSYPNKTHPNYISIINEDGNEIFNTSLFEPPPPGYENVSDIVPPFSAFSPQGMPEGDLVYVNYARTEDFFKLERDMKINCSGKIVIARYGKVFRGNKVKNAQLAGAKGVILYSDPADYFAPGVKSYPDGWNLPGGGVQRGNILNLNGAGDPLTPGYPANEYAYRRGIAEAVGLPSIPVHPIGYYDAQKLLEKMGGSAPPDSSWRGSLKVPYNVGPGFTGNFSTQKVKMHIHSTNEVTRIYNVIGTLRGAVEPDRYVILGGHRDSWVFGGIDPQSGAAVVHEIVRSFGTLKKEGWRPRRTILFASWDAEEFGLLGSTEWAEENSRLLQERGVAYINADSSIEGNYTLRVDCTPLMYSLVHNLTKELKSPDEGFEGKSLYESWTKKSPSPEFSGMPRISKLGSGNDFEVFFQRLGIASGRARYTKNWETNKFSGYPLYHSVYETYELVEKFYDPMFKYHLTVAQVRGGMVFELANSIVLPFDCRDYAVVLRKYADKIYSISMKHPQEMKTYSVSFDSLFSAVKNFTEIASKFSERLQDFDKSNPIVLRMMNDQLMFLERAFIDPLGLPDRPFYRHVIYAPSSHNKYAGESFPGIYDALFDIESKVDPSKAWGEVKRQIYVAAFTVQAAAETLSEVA
Protocol: as §2

PC3 cells = assay: In vitro uptake by PC3 cells; format: cell-based; details: PC3, PSMA (−) cell line
Protocol: as §2

PIP—PC3 cells = assay: In vitro uptake by PIP—PC3 cells; format: cell-based
Protocol: as §2

in vivo = assay: in vivo; design: species or system mice; details: mouse, total radioactivity
Excerpt: (§3) EXAMPLE. In vivo PET imaging and BioD study of DUPA-EAOA-Phe-Phe-NOTA-^68Ga radiotracer (^68Ga-QC08009). […] Without being bound by theory, it is believed herein that the data support that the primary elimination pathway is in urine.

[4] = tested on: PSMA (+) LnCaP xenografts; assay: in vivo; design: species or system mice; details: mouse
Excerpt: as §3

LnCaP cells = assay: In vitro uptake by LnCaP cells; format: cell-based
Protocol: as §2

FR [5] = target: T2, FR (Homo sapiens, UniProt P15328); assay: Binding to FR in KB xenograft tumor crude homogenate (concentration dependent binding, Scatchard analysis); details: for non-specific binding: KB homogenates; for binding sites and affinity (Scatchard analyses): all cell xenografts
T2 construct: to FR in KB and Cal51 tumor crude homogenate; from tissue; host or cells: KB and Cal51 tumour xenograft crude homogenates
T2 sequence (P15328 25-234): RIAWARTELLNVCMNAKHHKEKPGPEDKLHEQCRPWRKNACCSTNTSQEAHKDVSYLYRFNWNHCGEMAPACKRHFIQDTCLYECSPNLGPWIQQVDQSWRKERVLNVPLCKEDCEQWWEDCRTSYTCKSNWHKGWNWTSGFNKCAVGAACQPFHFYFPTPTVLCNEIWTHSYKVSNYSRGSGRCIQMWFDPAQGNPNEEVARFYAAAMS
Protocol: (§4) EXAMPLE. The specificity of the radionuclide containing conjugates binding to FR is evaluated against KB xenografts homogenates and Cal51 xenografts homogenates. […] Scatchard analyses were also performed. […] Without being bound by theory, it is believed herein that the moderate expression of FR in Cal51 xenografts accounts for the lower binding affinity. Binding affinities of ^18F-AIF-QC07017 (2) to FR in KB and Cal51 tumor crude homogenate.

KB tumor xenografts [6] = assay: μPET imaging under baseline and competed conditions in nude mice bearing KB tumor xenografts; format: in vivo; details: competed group, 100 μg of folic acid 10 min before i.v. injection
Protocol: EXAMPLE. μPET imaging was performed on nude mice bearing KB tumor xenografts under baseline and competed conditions to evaluate the in vivo binding specificity of ^18F-AIF-QC07017 (2) to FR. Nude mice bearing KB tumor xenografts on their left shoulder were injected with 0.30-0.40 mCi (2). […] Without being bound by theory, it is believed herein that the high radioactivity found in kidneys was due to the uptake mediated by FR that is expressed in the proximal tubule cells in kidneys and the potential accumulation of radiotracer via renal excretion, which was further supported by the biodistribution studies described herein. With the exception of the liver, significant uptake in other organs was not observed.

FR [7] = target: T2, FR; assay: Binding to FR in Cal51 xenograft tumor crude homogenate (concentration dependent binding, Scatchard analysis); details: Cal51 xenografts
Protocol: as §4

[8] = KB xenografts, tumor crude homogenate

SMILES	FR specificity (KB tumor xenografts [1])	radiotracer level in kidneys (KB tumor xenografts [1])	accumulation in A549 xenograft tumor tissues (A549 tumor xenografts)	binding affinity (in words) (FR [2])	non-specific binding (FR [5])	binding affinity (in words) (FR [5]; KB xenografts)	Bmax (FR [5]; [8]) [nM]	binding sites and affinity (Scatchard analyses) (FR [5])	binding affinity (in words) (FR [7])	Bmax (FR [7]; tumor crude homogenate) [nM]	also measured
Nc1nc2ncc(CNc3ccc(C(=O)N[C@@H](CCC(=O)NCCOCCOCCOCCOCCOCCOCCOCCOCCOCCOCCOCCOCCC(=O)NCCNC(=O)CN4CCN(CC(=O)O)CCN(CC(=O)O)CC4)C(=O)O)cc3)nc2c(=O)[nH]1 (Al18F complex, metal not drawn) [^18F-AIF-QC07043]	comparable to etarfolatide (EC20)	highest signal	comparable to the liver	lowest binding affinity							
O=C(O)CCC(NC(=O)NC(CCC(=O)NCCCCCCCC(=O)N[C@@H](Cc1ccccc1)C(=O)N[C@@H](Cc1ccccc1)C(=O)NCCNC(=O)CN1CCN(CC(=O)O)CCN(CC(=O)O)CC1)C(=O)O)C(=O)O (single isomer, unassigned) [^67Ga-NOTA-LC-PSMA2, DUPA-EAOA-Phe-Phe-NOTA-^67Ga, metal not drawn]											binding to PSMA(+) prostate cancer tissues [3]: superior binding; Kd (PSMA): 8.45 ± 2.16 nM
O=C(O)CCC(NC(=O)NC(CCC(=O)NCCCCCCCC(=O)N[C@@H](Cc1ccccc1)C(=O)N[C@@H](Cc1ccccc1)C(=O)NCCNC(=O)CN1CCN(CC(=O)O)CCN(CC(=O)O)CC1)C(=O)O)C(=O)O (single isomer, unassigned) [^68Ga-QC08009, DUPA-EAOA-Phe-Phe-NOTA-^68Ga, metal not drawn]											uptake by cells (PC3 cells): minimal; uptake by cells when competed (PC3 cells; competing ligand): did not change when competed; uptake by cells when competed (PIP—PC3 cells; PIP—PC3, competing ligand): blocked by competing ligand; uptake by cells (PIP—PC3 cells; PIP—PC3, transfect cell line with higher PSMA expression): substantial, with PIP—PC3 cells showing the highest uptake; tissue uptake dose (in vivo): 4.29 %ID; accumulation in kidneys [4]: minor accumulation; uptake by cells (LnCaP cells; PSMA (+) cell line): substantial; uptake by cells when competed (LnCaP cells; competing ligand): blocked by competing ligand
Nc1nc2ncc(CNc3ccc(C(=O)N[C@@H](CCC(=O)NCCOCCOCCNC(=O)CN4CCN(CC(=O)O)CCN(CC(=O)O)CC4)C(=O)O)cc3)nc2c(=O)[nH]1 [^18F-AIF-QC07017]	comparable to etarfolatide (EC20)	highest signal	comparable to the liver	lowest binding affinity	Significant non-specific binding was not observed	high specific binding affinity	511	bound one site with high affinity	Moderate binding affinity	36	Kd (FR [5]; [8]): 0.7 nM; binding by self competition (FR [5]; human tumor xenografts (KB and Cal51)): Displaceable and saturable binding; tumor uptake under competition with folic acid (KB tumor xenografts [6]): completely inhibited; Kd (FR [7]; tumor crude homogenate): 1.1 nM
Nc1nc2ncc(CNc3ccc(C(=O)N[C@@H](CCC(=O)NCCOCCOCCOCCOCCOCCOCCOCCOCCOCCOCCOCCOCCC(=O)NCCNC(=O)CN4CCN(CC(=O)O)CCN(CC(=O)O)CC4)C(=O)O)cc3)nc2c(=O)[nH]1 [^18F-AIF-QC07043]					Significant non-specific binding was not observed	high specific binding affinity	241	bound one site with high affinity	Moderate binding affinity	13	
